Experimental data reported in ChEMBL document CHEMBL5653615 (J Biol Chem, 2013).

Experiments:
[1] = molecular target: T1, Mitogen-activated protein kinase kinase kinase 5 (Homo sapiens) (UniProt Q99683); experiment: Inhibition of human ASK1 at 500 nM by HotSpot assay relative to control
T1 sequence (whole entry): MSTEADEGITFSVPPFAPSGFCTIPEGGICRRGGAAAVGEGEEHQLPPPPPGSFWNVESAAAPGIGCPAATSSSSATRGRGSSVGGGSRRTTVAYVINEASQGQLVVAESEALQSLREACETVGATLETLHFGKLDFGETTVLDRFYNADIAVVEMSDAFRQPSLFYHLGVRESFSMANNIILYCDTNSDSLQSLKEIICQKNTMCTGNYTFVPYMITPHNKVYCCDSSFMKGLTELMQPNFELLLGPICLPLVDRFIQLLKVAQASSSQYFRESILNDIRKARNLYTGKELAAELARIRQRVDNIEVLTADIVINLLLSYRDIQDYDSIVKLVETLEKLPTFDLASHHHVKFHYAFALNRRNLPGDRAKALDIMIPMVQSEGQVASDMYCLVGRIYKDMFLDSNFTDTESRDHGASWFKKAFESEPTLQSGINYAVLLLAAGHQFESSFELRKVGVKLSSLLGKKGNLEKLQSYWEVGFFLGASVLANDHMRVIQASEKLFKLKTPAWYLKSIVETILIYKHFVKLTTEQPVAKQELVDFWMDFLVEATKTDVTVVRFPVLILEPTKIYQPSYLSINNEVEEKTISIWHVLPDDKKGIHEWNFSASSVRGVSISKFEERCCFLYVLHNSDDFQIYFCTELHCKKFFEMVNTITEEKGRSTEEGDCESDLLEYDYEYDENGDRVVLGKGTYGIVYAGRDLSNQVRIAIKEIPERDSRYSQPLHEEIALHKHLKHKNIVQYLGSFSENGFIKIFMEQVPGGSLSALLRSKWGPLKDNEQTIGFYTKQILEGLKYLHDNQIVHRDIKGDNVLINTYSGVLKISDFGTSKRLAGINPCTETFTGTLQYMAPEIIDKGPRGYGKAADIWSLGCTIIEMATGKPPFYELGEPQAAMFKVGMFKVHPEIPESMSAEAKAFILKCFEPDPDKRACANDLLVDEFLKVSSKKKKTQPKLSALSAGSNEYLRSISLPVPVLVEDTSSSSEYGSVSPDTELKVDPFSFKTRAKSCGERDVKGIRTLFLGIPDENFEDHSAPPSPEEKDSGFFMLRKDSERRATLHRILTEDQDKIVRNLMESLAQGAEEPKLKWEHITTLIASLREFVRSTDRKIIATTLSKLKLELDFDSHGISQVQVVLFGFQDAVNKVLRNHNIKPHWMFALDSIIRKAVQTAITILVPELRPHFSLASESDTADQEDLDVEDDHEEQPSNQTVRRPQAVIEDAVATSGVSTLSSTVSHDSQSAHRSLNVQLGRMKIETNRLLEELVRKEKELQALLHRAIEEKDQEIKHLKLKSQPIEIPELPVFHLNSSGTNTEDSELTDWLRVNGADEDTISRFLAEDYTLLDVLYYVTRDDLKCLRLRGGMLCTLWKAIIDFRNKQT

[2] = molecular target: T2, Serine/threonine-protein kinase Chk1 (Homo sapiens) (UniProt O14757); experiment: Inhibition of human CHK1 at 500 nM by HotSpot assay relative to control
T2 sequence (whole entry): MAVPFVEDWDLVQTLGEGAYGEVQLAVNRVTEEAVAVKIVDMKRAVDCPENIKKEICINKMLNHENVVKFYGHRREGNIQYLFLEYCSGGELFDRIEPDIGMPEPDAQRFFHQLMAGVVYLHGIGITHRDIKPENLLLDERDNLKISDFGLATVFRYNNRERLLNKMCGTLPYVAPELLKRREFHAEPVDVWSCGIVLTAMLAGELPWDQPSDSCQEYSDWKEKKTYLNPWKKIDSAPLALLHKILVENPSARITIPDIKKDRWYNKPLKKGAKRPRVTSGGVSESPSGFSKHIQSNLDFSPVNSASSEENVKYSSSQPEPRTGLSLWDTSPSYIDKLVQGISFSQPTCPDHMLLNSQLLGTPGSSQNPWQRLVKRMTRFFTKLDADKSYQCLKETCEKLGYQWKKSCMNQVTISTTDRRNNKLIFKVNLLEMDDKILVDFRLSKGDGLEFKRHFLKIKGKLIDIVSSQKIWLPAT

[3] = molecular target: Casein kinase I isoform alpha (Homo sapiens) (UniProt P48729); experiment: Inhibition of human CK1a1 at 500 nM by HotSpot assay relative to control
Sequence of Casein kinase I isoform alpha (Homo sapiens) (P48729 2-337 limits assumed): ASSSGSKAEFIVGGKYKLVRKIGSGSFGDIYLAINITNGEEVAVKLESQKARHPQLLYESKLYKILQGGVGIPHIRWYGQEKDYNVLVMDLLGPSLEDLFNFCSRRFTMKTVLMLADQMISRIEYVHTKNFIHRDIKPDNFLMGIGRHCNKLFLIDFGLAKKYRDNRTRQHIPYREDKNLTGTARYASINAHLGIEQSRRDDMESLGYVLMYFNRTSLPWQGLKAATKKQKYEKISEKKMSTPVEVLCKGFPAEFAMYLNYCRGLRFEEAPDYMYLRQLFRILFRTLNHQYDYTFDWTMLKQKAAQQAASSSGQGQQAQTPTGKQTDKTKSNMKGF

[4] = molecular target: LIM domain kinase 1 (Homo sapiens) (UniProt P53667); experiment: Inhibition of human LIMK1 at 500 nM by HotSpot assay relative to control
Sequence of LIM domain kinase 1 (Homo sapiens) (P53667 whole entry, looked up, the tested form may be a part): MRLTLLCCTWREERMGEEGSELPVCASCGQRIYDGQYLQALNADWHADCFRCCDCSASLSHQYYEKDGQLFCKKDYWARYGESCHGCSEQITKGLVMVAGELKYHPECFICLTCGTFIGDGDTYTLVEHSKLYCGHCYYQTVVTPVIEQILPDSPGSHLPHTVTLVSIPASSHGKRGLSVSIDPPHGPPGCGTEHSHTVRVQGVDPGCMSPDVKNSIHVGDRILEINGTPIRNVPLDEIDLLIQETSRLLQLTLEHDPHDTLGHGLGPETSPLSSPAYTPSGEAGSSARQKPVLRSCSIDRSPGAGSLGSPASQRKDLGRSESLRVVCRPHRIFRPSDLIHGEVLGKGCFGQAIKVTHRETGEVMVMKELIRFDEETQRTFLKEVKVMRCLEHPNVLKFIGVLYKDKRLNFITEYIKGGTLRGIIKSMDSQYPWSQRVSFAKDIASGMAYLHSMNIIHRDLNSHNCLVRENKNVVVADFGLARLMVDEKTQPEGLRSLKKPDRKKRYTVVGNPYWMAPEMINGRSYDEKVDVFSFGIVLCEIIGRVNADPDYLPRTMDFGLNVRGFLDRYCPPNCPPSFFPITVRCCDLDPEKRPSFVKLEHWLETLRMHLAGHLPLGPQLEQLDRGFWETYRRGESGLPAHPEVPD

[5] = molecular target: Serine/threonine-protein kinase 10 (Homo sapiens) (UniProt O94804); experiment: Inhibition of human LOK at 500 nM by HotSpot assay relative to control
Sequence of Serine/threonine-protein kinase 10 (Homo sapiens) (O94804 whole entry, looked up): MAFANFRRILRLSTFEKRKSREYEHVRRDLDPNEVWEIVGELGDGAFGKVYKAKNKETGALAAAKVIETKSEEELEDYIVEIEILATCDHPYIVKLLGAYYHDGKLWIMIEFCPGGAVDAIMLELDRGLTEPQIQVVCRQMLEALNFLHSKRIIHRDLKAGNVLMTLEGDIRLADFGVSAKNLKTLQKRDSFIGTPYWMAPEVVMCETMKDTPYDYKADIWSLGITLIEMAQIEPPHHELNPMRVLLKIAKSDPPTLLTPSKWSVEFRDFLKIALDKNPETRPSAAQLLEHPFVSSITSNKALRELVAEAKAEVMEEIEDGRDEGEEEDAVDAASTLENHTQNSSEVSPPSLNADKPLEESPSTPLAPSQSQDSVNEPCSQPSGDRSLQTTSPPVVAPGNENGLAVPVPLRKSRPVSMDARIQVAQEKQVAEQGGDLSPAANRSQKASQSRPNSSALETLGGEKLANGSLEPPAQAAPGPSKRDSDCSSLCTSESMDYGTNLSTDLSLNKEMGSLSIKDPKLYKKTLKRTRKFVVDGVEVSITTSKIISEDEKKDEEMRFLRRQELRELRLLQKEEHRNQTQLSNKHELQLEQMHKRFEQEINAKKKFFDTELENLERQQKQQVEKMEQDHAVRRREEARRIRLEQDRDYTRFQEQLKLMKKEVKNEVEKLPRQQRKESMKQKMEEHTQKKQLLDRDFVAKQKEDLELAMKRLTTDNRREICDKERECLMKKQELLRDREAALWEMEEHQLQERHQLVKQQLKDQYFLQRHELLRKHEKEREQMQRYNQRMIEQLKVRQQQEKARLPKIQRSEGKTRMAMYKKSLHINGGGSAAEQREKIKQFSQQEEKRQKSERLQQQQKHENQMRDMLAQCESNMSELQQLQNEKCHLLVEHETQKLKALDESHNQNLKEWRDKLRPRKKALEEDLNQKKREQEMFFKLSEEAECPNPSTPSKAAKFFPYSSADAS

[6] = molecular target: Maternal embryonic leucine zipper kinase (Homo sapiens) (UniProt Q14680); experiment: Inhibition of human MELK at 500 nM by HotSpot assay relative to control
Sequence of Maternal embryonic leucine zipper kinase (Homo sapiens) (Q14680 whole entry, looked up): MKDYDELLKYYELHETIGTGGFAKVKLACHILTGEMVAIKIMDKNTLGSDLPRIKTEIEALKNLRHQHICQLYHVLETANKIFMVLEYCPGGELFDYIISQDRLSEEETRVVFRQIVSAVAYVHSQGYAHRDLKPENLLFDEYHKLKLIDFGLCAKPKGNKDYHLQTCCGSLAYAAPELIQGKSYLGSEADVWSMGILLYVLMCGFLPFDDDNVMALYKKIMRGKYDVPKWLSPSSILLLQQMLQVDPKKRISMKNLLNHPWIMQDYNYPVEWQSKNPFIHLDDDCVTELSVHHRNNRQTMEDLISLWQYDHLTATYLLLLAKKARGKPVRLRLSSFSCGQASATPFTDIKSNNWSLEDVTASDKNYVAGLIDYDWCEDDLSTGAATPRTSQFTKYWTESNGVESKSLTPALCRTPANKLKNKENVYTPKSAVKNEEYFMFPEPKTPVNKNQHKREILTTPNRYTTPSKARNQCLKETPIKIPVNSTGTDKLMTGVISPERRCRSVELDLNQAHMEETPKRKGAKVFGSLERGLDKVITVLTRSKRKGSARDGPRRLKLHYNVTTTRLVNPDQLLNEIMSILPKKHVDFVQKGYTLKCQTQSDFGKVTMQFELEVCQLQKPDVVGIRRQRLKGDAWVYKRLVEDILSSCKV

[7] = molecular target: T3, Testis-specific serine/threonine-protein kinase 2 (Homo sapiens) (UniProt Q96PF2); experiment: Inhibition of human TSSK2 at 500 nM by HotSpot assay relative to control
T3 sequence (whole entry): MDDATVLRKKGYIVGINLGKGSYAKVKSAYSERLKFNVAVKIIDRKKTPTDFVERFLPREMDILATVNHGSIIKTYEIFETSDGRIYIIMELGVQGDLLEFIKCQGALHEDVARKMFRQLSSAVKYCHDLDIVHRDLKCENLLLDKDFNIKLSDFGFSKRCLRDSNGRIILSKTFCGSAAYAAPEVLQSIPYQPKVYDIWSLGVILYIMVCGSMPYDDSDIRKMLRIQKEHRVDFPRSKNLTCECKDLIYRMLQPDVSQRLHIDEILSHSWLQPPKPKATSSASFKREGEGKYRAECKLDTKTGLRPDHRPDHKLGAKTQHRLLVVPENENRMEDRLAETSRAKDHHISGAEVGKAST

[8] = molecular target: Death-associated protein kinase 3 (Homo sapiens) (UniProt O43293); experiment: Inhibition of human DAPK3 at 500 nM by HotSpot assay relative to control
Sequence of Death-associated protein kinase 3 (Homo sapiens) (O43293 whole entry, looked up): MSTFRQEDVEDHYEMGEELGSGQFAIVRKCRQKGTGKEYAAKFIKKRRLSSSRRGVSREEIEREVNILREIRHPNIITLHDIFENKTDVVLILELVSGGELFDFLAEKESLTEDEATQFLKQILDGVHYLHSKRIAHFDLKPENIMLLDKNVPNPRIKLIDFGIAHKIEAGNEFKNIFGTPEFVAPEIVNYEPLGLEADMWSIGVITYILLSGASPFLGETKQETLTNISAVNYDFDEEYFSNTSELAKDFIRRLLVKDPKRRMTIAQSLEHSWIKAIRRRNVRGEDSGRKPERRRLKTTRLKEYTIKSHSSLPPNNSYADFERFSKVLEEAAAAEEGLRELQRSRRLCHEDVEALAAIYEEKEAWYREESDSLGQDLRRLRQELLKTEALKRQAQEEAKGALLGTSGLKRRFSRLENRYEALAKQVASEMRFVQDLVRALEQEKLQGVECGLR

Nc1n[nH]c2nnc(-c3c(-c4ccccc4)nn4ccccc34)cc12
inhibition [1]: 0.68% | inhibition [2]: -3.37% | inhibition [3]: -0.27% | inhibition [4]: 1.81% | inhibition [5]: 29.1% | inhibition [6]: -1.59% | inhibition [7]: -4.17% | inhibition [8]: -2.11%

Oc1n[nH]c2nnc(-c3c(-c4ccccc4)nn4ccccc34)cc12
inhibition [1]: 0.05% | inhibition [2]: -1.38% | inhibition [3]: -6.61% | inhibition [4]: -1.82% | inhibition [5]: 5.81% | inhibition [6]: -1.3% | inhibition [7]: -1.61% | inhibition [8]: -0.67%
